Structure (SMILES) | melting point [°C]
CN1CCN(c2ccc(C=O)cc2F)CC1 | 65 to 67
Cc1nnc(S)n1CC(=O)N(C)C | 260 to 262
CS(=O)(=O)N1CCC(NC(=O)N2CCC(C(=O)O)CC2)CC1 | 197 to 199
Nc1cccc(N2CCS(=O)(=O)CC2)c1 | 151 to 153
CCOC(=O)c1cnn2c1nc(Cl)c1ccccc12 | 129 to 131
CCc1nnc(-c2cccc(N)c2)o1 | 88 to 90
O=C(CCCl)Nc1cc([N+](=O)[O-])ccc1F | 84 to 86
COc1ccc(OC)c(NC(=O)CCl)c1 | 169 to 171
O=C(O)c1ccc2ncc(I)n2c1 | 254 to 256
NS(=O)(=O)c1ccc2[nH]c(=O)c(=O)[nH]c2c1 | 372 to 374
ClCc1nnc(-c2ccco2)o1 | 81 to 83
CNC1CCN(c2ccc(Cl)cc2)CC1 | 49 to 51
CCOC(=O)c1cc(C#N)c(SCC(=O)O)[nH]c1=O | 195 to 197
NC(=O)NC1(C(=O)O)CC1 | 189 to 191
CN(C)S(=O)(=O)c1ccc(O)c(N)c1 | 154 to 156
CCCCN1Cc2ccc(N)cc2C1 | 62 to 64
O=C(O)CCc1nc(-c2ccoc2)no1 | 143 to 145
NCc1ccc(N2CCC(CO)CC2)cc1 | 138 to 140
O=C(O)C1CC1c1c(Cl)cccc1Cl (stereo not given) | 144 to 146
Cc1sc2ncn(N)c(=O)c2c1C | 131 to 133
Nc1cccc(S(=O)(=O)NC2=NCCC2)c1 | 166 to 168
O=C(O)Cc1ccc(NC(=O)c2cscn2)cc1 | 184 to 186
O=C(O)c1c(-n2cccc2)sc2c1CCSC2 | 169 to 171
O=C(c1c[nH]c2ccccc12)N1CCCC1 | 229 to 231
O=[N+]([O-])c1cc(S(=O)(=O)Cl)c(F)cc1F | 46 to 48

Now from value to compound:

melting point [°C] | Structure (SMILES)
117 to 119 | CC(C)c1nnc(S)n1N
84 to 86 | O=C(O)C1CC1c1cccc(C(F)(F)F)c1 (stereo not given)
219 to 221 | Cc1cc2n(n1)C(=O)CC(=O)N2
107 to 109 | COC(=O)CNc1ncc(C)cc1[N+](=O)[O-]
155 to 157 | CN1C(=O)CC(C(=O)O)C1c1cccc(Cl)c1 (stereo not given)
85 to 90 | COC(=O)C(=O)CC(=O)c1cc(OC)ccc1OC
168 to 170 | O=S(=O)(Nc1ccc2cn[nH]c2c1)c1ccc2c(c1)CCC2
90 to 94 | Cc1cc(C(=O)CCl)c(C)n1-c1cccc(F)c1
67 to 69 | O=C(O)C1(c2ccc(F)cc2)CCC1
39 to 41 | CCC(=O)c1ccc(Oc2ccccc2)cc1
131 to 133 | COc1ccccc1C1(C(=O)O)CC1
123 to 125 | O=C(c1ccc(Br)cc1)N1CCc2ccccc21
140 to 142 | CS(=O)(=O)OCCN1C(=O)c2ccccc2C1=O
58 to 60 | O=C(O)C1CSCCS1 (stereo not given)
369 to 371 | Cc1cc(C)n2nc(N)nc2n1
174 to 176 | CCCc1noc2ncc(C(=O)O)cc12
112 to 114 | CCNS(=O)(=O)c1ccc(I)cc1
154 to 156 | COc1cccc(-c2csc(=O)[nH]2)c1
129 to 131 | O=Cc1cccc(NC(=O)c2ccc(Cl)cc2)c1
179 to 181 | CNC(=O)c1cc(Oc2cccc(O)c2C)ccn1
132 to 134 | COc1cc2nc(-c3ccccc3)nc(Cl)c2cc1OC
120 to 122 | NC(=S)NCc1ccc(OC(F)(F)F)cc1
144 to 146 | O=C1CNC(=O)N1C1CC1
139 to 141 | COc1cccc(C(=O)c2c[nH]c3ncccc23)c1
219 to 221 | Cc1ccc(-n2nc(Br)cc2C(=O)O)cc1
169 to 171 | Cc1cc2n(n1)C(C(F)(F)F)CCN2 (stereo not given)
72 to 74 | NCc1ccc(-n2cnc3ccccc32)cc1
178 to 180 | O=c1cc(CCl)c2cc(O)c(O)cc2o1
38 to 40 | NCCNC(=O)c1ccccc1O
109 to 111 | CN(C)S(=O)(=O)c1c(Cl)nc2ccccn12
